Laboratory results taken from patent publication US20250332154A1, “USE OF NAPHTHOQUINE PHOSPHATE IN PREPARATION OF A MEDICAMENT FOR TREATING AUTOIMMUNE DISEASES” (SHANGHAI PHARMACEUTICALS INDUSTRY CO., LTD, priority 2022, published 2025).
Structures can show the parent of a compound that is named as a salt. Where two headings read alike, the source gives them in different places.

Tests used:
IgG = IgG secretion by TLRs-L-stimulated mouse whole spleen lymphocytes (ELISA); assay type: cell-based; conditions: Lymphocyte, 120 h
Protocol: (§1) BALB/c mice were sacrificed by cervical dislocation, and spleens were aseptically excised to prepare whole spleen lymphocytes. The cells were adjusted to 5×10^6 cells/ml. Hydroxychloroquine sulfate was diluted with a 3-fold gradient into 3 concentrations starting from 30 μM: 30, 10 and 3 μM; naphthoquine phosphate was diluted with a 3-fold gradient into 3 concentrations starting from 10 μM: 10, 3 and 1 μM.
(§2) Mouse spleen lymphocytes were inoculated into a 96-well plate at 100 μl/well, and the stimulant TLR4-L (final concentration: 10 μg/ml), TLR7-L (final concentration: 5 μg/ml) or TLR9-L (final concentration: 1 μM) and the compounds diluted with the above concentration gradients were added. A corresponding stimulation control and a cell control (without stimulation) were set up. The cells were cultured in a 37° C., 5% CO2 incubator for 120 hours. After the end of the culture, the cell culture supernatants were collected, and the levels of IgG and IgM were measured by ELISA.

[1] = test system: mouse whole spleen lymphocytes (LPS-induced B cell activation and proliferation); experiment: LPS-induced lymphocyte proliferation assay (3H-thymidine); assay type: cell-based; conditions: for IC50: LPS 10 μg/ml, 48 hours, 3H-thymidine, read-out: LPS IC50
Protocol: (§3) BALB/c mice were sacrificed by cervical dislocation, and spleens were aseptically excised to prepare whole spleen lymphocytes. The cells were adjusted to the required concentration.
(§4) A suspension of mouse spleen lymphocytes was inoculated into a 96-well plate at 5×10^5/well, and ConA (final concentration: 1 μg/ml) or LPS (final concentration: 10 μg/ml) and the above 10 concentration gradients of the compound were added. Corresponding cell control wells without ConA and LPS, as well as medicament-free stimulated control wells, were set up. The cells were cultured in a 37° C., 5% CO2 incubator for 48 hours. Eight hours before the end of the culture, ^3H-thymidine was added, and the culture continued until the end of the experiment (i.e., the aforementioned 48 hours). The cells were collected onto glass fiber membranes using a cell collector.
(§5) ConA and LPS, as mitogens, stimulated proliferation and differentiation of T and B lymphocytes, respectively. This process is similar to the activation process of lymphocytes in vivo. Therefore, mitogen-induced lymphocyte proliferation is commonly used as an indicator to evaluate functionality of lymphocytes.

IL-1β = IL-1β secretion by TLRs-L-stimulated mouse whole spleen lymphocytes (ELISA); assay type: cell-based; conditions: Lymphocyte, 48 h, read-out: IB-1β IC50
Protocol: as §1
as §2, with “48” for “120”, “IL-1β, IL-6,” for “IgG”, “IL-10” for “IgM”

IL-6 [2] = experiment: IL-6 secretion by TLRs-L-stimulated purified mouse B cells (ELISA); assay type: cell-based; conditions: B-cell, 48 h, stimulant TLR4-L 10 μg/ml
Protocol: (§6) BALB/c mice were sacrificed by cervical dislocation, and spleens were aseptically excised to prepare spleen lymphocytes. The cells were adjusted to 1×10^8 cells/ml, blocked with 2.4G2 (final concentration: 10 μg/ml) for 20 min, cultured with PE-CD19 (final concentration: 5 μg/ml) for 20 min, washed with MACS buffer, centrifuged at 4° C., 300G for 10 min, 100 μl anti-PE beads were added per 1×10^8 cells, incubated with 900 μl MACS buffer for 15 min, washed with MACS buffer, centrifuged at 4° C., 300G for 10 min. The supernatant was discarded. 500 μl MACS buffer was added per 1×10^8 cells to resuspend the cells. MACS column was used for separation. Magnetically labeled cells were retained on the column. The MACS column was removed from the magnetic field and then eluted.
A suspension of purified mouse B cells was inoculated into a 96-well plate at 4×10^5/well. Hydroxychloroquine sulfate was diluted with a 2-fold gradient into 3 concentrations starting from 8 μM: 8, 4 and 2 μM. Naphthoquine phosphate was diluted with a 2-fold gradient into 3 concentrations 0.5 μM.: 0.5, 0.25 and 0.125 μM. […] After the end of the culture, the cell culture supernatants were collected, and the levels of TNF-α, IL-1β, and IL-6 were measured by ELISA.

IL-6 [3] = experiment: IL-6 production by LPS-induced RAW264.7 cells (ELISA); assay type: cell-based, mouse; conditions: for production of IL-6: LPS-induced RAW264.7, in words; for IC50: Mus musculus, LPS 10 μg/ml, RAW264.7
Protocol: RAW264.7 cells were inoculated into a 96-well plate at 1×10^5/well and allowed to adhere to the wall for 6 hours in a 37° C., 5% CO2 incubator. […] After the cells adhered to the wall, the stimulant LPS (final concentration: 10 μg/ml) and the gradient-diluted compounds were added. A corresponding stimulation control and a cell control (without stimulation) were set up. After the end of the culture, the cell culture supernatants were collected, and the levels of TNF-α, IL-1β and IL-6 were measured by ELISA.

[4] = Non-specific cytotoxicity assay (MTT), purified mouse B cells; assay type: cell-based; conditions: BALB/c
Protocol: as §6
Hydroxychloroquine sulfate was diluted with a 2-fold gradient into 3 concentrations starting from 8 μM: 8, 4 and 2 μM. Naphthoquine phosphate was diluted with a 2-fold gradient into 3 concentrations starting from 0.5 μM: 0.5, 0.25, 0.125 μM. Purified mouse B cells were inoculated into a 96-well plate at 1×10^6/well, and gradient diluted compounds were added. A corresponding blank control and a cell control were set up. The cells were cultured in a 37° C., 5% CO2 incubator for 48 hours. […] The absorbance value was measured at 570 nm with a microplate reader (Spectra Max 190, Molecular Devices).

IgM = IgM secretion by TLRs-L-stimulated mouse whole spleen lymphocytes (ELISA); assay type: cell-based; conditions: Lymphocyte, 120 h
Protocol: as §1, §2

[5] = test system: mouse whole spleen lymphocytes (ConA-induced T cell activation and proliferation); experiment: ConA-induced lymphocyte proliferation assay (3H-thymidine); assay type: cell-based; conditions: for IC50: ConA 1 μg/ml, 48 hours, 3H-thymidine, read-out: ConA IC50
Protocol: as §3, §4, §5

[6] = listed as Hydroxychloroquine Sulfate (Zhongxi Sunve)

IC50 (IgG; stimulant TLR4-L 10 μg/ml) [µM]	IC50 (IgG; stimulant TLR7-L 5 μg/ml) [µM]	IC50 (IgG; stimulant TLR9-L 1 μM) [µM]	IC50 (IL-1β; stimulant TLR4-L 10 μg/ml) [µM]	IC50 (IL-1β; stimulant TLR9-L 1 μM) [µM]	IC50 (IL-6 [2]) [µM]	IC50 (IL-6 [3]) [µM]	IC50 (IgM; stimulant TLR4-L 10 μg/ml) [µM]	IC50 (IgM; stimulant TLR7-L 5 μg/ml) [µM]	IC50 (IgM; stimulant TLR9-L 1 μM) [µM]	Compound	IC50 [1, 6] [µM]	IC50 ([1]; Mus musculus, Lymphocyte) [µM]	production of IL-6 (IL-6 [3])	CC50 at 48 h [4] [µM]	IC50 [5, 6] [µM]	IC50 ([5]; Mus musculus, Lymphocyte) [µM]	effect on LPS-induced B cell activation and proliferation ([1]; in words)	effect on ConA-induced T cell activation and proliferation ([5]; in words)
18.2	26.9	5.63	32	41.6	> 8	16.5	25.3	19.2	2.51	CCN(CCO)CCCC(C)Nc1ccnc2cc(Cl)ccc12 (stereo not shown) [Hydroxychloroquine Sulfate, hydroxychloroquine sulfate]	14.9	14.9	no significant effect	19.7	17	17.1		
		0.325	3.35		0.5	> 10	0.845		2.03	CC(C)(C)NCc1cc(Nc2ccnc3cc(Cl)ccc23)c2c(c1O)CCCC2.O=P(O)(O)O.O=P(O)(O)O [Naphthoquine Phosphate, Naphthoquine phosphate]		0.08	no significant effect	1.98		0.41	significant inhibitory activity	significant inhibitory activity
